From patent US4226877A, “Pyrazoles active in the central nervous system” (Abbott Laboratories, priority 1979, dated 1980)
Read-outs that look alike come from different tables or passages of the source.

Legend:
[1] = system: brain level of homovanillic acid (HVA); experiment: Effect of drug compounds on brain level of homovanillic acid (HVA) in rats; format: in vivo, male Long Evans rats; settings: brains (minus cerebella) removed two or three hours later, control = 1
Protocol: In testing for the effectiveness of the present drug compounds on the brain level of homovanillic acid (HVA), the drugs were administered intraperitoneally to male Long Evans rats (Simonsen) usually as aqueous solutions but in certain cases as suspensions in 0.5% methocel in 0.9% saline. The standard testing dose was […] body weight. The test and control groups consisted of 3-5 and 5 animals, respectively. The analyses were performed on brains (minus cerebella) removed two or three hours later. In the analyses, standard extraction and fluorimetric methods were used.
Antipsychotic agents increase the synthesis and release of dopamine which is converted to HVA. The HVA level is therefore a measure of dopamine release.

[2] = system: methamphetamine-induced hyperactivity; experiment: Rat methamphetamine antagonism test; format: in vivo, Male, Long-Evans, black hooded rats; settings: for ED50: Rattus norvegicus; for % Change From Placebo Control: methamphetamine 1 mg/kg i.p. one hour later
Protocol: The second test for identifying potential antipsychotic properties was the rat methamphetamine antagonism test.
[…] Three rats were tested at each dose level. Placebo controls received a volume dose of the 0.5% carboxymethylcellulose vehicle. One hour after drug administration, the animals received methamphetamine at an intraperitoneal dose of 1 mg/kg and were placed in individual test chambers equipped with photocells (Lehigh Valley, Model 1497). Antagonism of methamphetamine-induced hyperactivity was recorded as digital counts received from the photocells at one and two hour intervals.
The drug data were compared to placebo control values to identify statistically significant differences using a one-way analysis of variance computer program. ED50's were calculated by the method of Litchfield and Wilcoxin (J. Pharmacol. Exper. Therap.: 96:99, 1949).

[3] = Dose 0.15 (moles/kg body weight), intraperitoneal
[4] = oral, calculated by the method of Litchfield and Wilcoxin, read-out: ED50

| Structure (SMILES) | HVA Level; Compound : Control Ratio ([1]; Dose 0.03, intraperitoneal) | ED50 ([2]; po) | % Change From Placebo Control ([2]; oral dose 5 mg/kg) | % Change From Placebo Control ([2]; oral dose 10 mg/kg) | % Change From Placebo Control ([2]; oral dose 20 mg/kg) | HVA Level; Compound : Control Ratio [1, 3] | ED50 [2, 4] | % Change From Placebo Control ([2]; oral dose 80 mg/kg) |
| --- | --- | --- | --- | --- | --- | --- | --- | --- |
| CN(C)CCCN1c2ccccc2Sc2ccc(Cl)cc21 [Chlorpromazine, reference compound] | 3.9 | 15 mg/kg | +10% | -40% | -74% |  |  |  |
| CCN1CCCC1CNC(=O)c1c(C)nn(C)c1OC (centres unmarked) [I, N-[(1-ethyl-2-pyrrolidinyl)methyl]-5-methoxy-1,3-dimethylpyrazole-4-carboxamide] |  |  | -9% |  | -35% | 4.0 | 44 mg/kg | -60% |
| CCN1CCCC1CNC(=O)c1c(C)nn(C(C)C)c1OC (centres unmarked) [II, N-[(1-Ethyl-2-pyrrolidinyl)methyl]-1-isopropyl-5-methoxy-3-methylpyrazole-4-carboxamide] |  |  | -16% |  | -13% | 1.8 | > 80 mg/kg | -16% |
| CCN1CCCC1CNC(=O)c1c(C(C)C)nn(C)c1OC (centres unmarked) [III, N[(1-Ethyl-2-pyrrolidinyl)methyl]-3-isopropyl-5-methoxy-1-methylpyrazole 4-carboxamide] |  |  | -31% |  | -33% | 1.0 | > 80 mg/kg | -12% |
| CCN1CCCC1CNC(=O)c1c(C)nn(C(C)C)c1O (centres unmarked) [IV] |  |  | +35% |  | +28% | 2.2 | > 80 mg/kg | -18% |
| CCN1CCCC1CNC(=O)c1cc(S(N)(=O)=O)ccc1OC (centres unmarked) [Sulpiride, reference compound] |  |  | +27% |  | +21% | 3.0 | > 80 mg/kg | 0% |
| CCN1CCCC1CNC(=O)c1c(C)nn(-c2ccccc2)c1OC (centres unmarked) [V, N-[(1-Ethyl-2-pyrrolidinyl)methyl]-5-methoxy-3-methyl-1-phenyl pyrazole-4-carboxamide] |  |  | -23% |  | -32% | 3.3 | 23.5 mg/kg | -81% |
